The test system of data set [1] is isolated guinea pig ileum. The data set is described as follows: Isolated guinea pig ileum induced contraction. Format: cell-based.
The nature of a further data set: LD50 in mice. Format: in vivo. The note with it: mouse, in vivo, HCl salts, read-out: LD₅₀. The text has this:
(§1) The LD₅₀ in mice of (+)-, (-) and [for comparison] There are no significant differences in the toxicity of the tested compounds.

A further data set has as its target T1, M₁ receptors (Rattus norvegicus, UniProt P08482).
T1 sequence (P08482 1-460): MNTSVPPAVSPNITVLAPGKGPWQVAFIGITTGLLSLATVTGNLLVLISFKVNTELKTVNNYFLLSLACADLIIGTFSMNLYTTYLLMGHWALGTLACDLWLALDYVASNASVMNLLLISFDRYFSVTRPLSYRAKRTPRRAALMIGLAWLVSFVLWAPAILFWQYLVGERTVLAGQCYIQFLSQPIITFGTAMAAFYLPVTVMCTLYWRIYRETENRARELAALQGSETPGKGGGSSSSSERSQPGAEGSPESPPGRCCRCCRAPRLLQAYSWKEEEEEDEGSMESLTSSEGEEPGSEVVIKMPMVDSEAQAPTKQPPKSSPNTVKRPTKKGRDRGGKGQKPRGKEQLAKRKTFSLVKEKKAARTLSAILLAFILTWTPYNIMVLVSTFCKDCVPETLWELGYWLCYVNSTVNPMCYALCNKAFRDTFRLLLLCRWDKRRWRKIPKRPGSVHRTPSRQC
Description: biochemical. Format: binding. The following applies: for a:c: ratio Ki(3H-PZ):Ki(3H-CD).

Data set [2] concerns AF64A and saline-injected rats. The data set is described as follows: Passive avoidance (step-through) retention in AF64A and saline-injected rats. The format is in vivo, Sprague-Dawley rats. The note with it: for Retention latency after 72 hours: 0.2mg./kg. per os post-training, cut-off 600 secs., nine rats per group; for net latencies of AF64A-treated groups compared with the group treated with double distilled water: p < 0.005 for (-)-, p < 0.05 for (±)-cis. The text has this: Ethylcholine aziridinium ion (hereinafter denoted AF64A) is a selective presynaptic cholinergic neurotoxin, which on intracerebroventricular injection in rats induces persistent cholinergic hypofunction that mimics the cortical and hippocampal cholinegic deficiency and the cognitive impairments reported in SDAT. Accordingly, the possibility of reversal of the AF64A-induced effects by (-)- and [for comparison] (±)-cis-2-methylspiro(1,3-oxathiolan-5,3′)quinuclidine in the passive avoidance task was studied. In this experiment, the results of which are reported in Table 4, we investigated the effect of these substances (0.2mg./kg/., per os) on the retention after 72 hours of an inhibitory learning (passive avoidance-step through) task in AF64A and saline-injected rats, using a post-training drug treatment paradigm. The surgery carried out on the test animals (Sprague-Dawley rats raised by Charles River) was similar to that described in our prior published European Patent Application No. 0205247. The behavioral studies were performed one month after surgery.
The behavioral testing procedure comprised two phases, 1 and 2. In a pretest training procedure each rat was individually placed in a small lighted front compartment of a two-compartment box. After a 60 secs. familiarization/adaptation period, the door separating the two compartments was opened and a clock activated. The rat's latency to enter the large dark compartment of the box (to step-through) was measured. Immediately following entry into the dark compartment, the rat was subjected to an inescapable scrambled foot shock applied to the grid floor (0.6mA for 3 secs.). Sixty secs. after the termination of the shock, at the end of the training procedure, the rat was removed from the dark compartment and double distilled water, (-)- and (±)-cis-2-methylspiro(1,3-oxathiolan-5,3′)quinuclidine were administered per os. Rats were then returned to their home cage. Retention of the passive avoidance task was measured […]. after training by again placing the rat in the lighted front compartment, and after a 60 secs. adaptation period, measuring the latency to enter the dark compartment. The test session ended when a rat entered the dark compartment or after 600 secs. had elapsed. […]

The test system of a further data set is mice. Description: LD50 in mice. The format is in vivo. The following applies: HCl salts.
Excerpt: as §1

Data set [3] deals with muscarinic receptors. The format is binding, rat. The following applies: for Ki: rat forebrain homogenates, mean ± spread (n), Ki = IC50 ÷ (1 + C/KD), read-out: Ki(^3H-QNB).
Data set [4] concerns the target muscarinic receptors. The data set is described as follows: Displacement of 3H-cis-dioxolane (3H-CD) from rat forebrain homogenates. The format is binding. (In general: In a radioligand displacement assay an active substance lowers the binding of a labelled ligand.)
Where [5] appears, read: index of M1 versus M2 selectivity.

Like-named read-outs stand apart in the source and are kept apart here.

7 compounds from patent publication EP0303391B1, “Optical isomers of a spiroquinuclidine derivative” (State of Israel Represented by the Prime Minister's Office …, priority 1987, dated 1989) can be followed below.

In general, Ki refers to the equilibrium dissociation constant of an inhibitor or competing ligand from its target. A word on the EC50: it is the concentration at which the effect is half-maximal.

As to `CC1OC2(CS1)CN1CCC2CC1` (racemic) [(±)-cis-isomer, (±)-cis-2-methylspiro(1,3-oxathiolan-5,3')quinuclidine], the type of activity result in data set [1] is “agonist”. For the same compound, the LD50 in “LD50 in mice” (female mice) is 40.8 mg/kg; in “LD50 in mice” (male mice) it was 45 mg/kg. Also, the “a:b” value at M₁ receptors was found to be 0.10. Moreover, the Ki on M₁ receptors (Ki(^3H-PZ)) came out at 0.6 µM. In addition, on M₁ receptors (setting [5]), the “a:c” value amounted to 1.4. In addition, the entries for the “Retention latency after 72 hours” value in data set [2] (AF64A-treated rats) and in data set [2] (saline-treated rats) were 407.9 (±72.1) seconds and 478.2 (±65.7) seconds, respectively. For the same compound, the “net latencies of AF64A-treated groups compared with the group treated with double distilled water” value in data set [2] (AF64A-treated rats) was “significantly longer”.

For `CC1OC2(CS1)CN1CCC2CC1` (racemic) [(±)-trans-isomer, (±)-trans-2-methylspiro(1,3-oxathiolan-5,3')quinuclidine], the type of activity result in data set [1] was “agonist”. Further, the “a:b” value at M₁ receptors was found to be 0.59. Further, the “a:c” value on M₁ receptors (index of M1 versus M2 selectivity, listed as 3) worked out at 8.1. On M₁ receptors (read-out: Ki(^3H-PZ)), the inhibition constant (Ki) is 14.6 ± 2.9 µM.

Turning to `CC1OC2(CS1)CN1CCC2CC1` (single isomer, unassigned; (+)) [(+)-cis-isomer, (+)-cis-2-methylspiro(1,3-oxathiolan-5,3')quinuclidine], in data set [1], the type of activity result was “inactive as agonist”. Moreover, the figures for the LD50 in the data set “LD50 in mice” (female mice) and in the data set “LD50 in mice” (male mice) were 45 mg/kg and 39.1 mg/kg, respectively. Affinity on M₁ receptors (Ki(^3H-PZ)) was put at a Ki of 9.6 µM.

On to `CC1OC2(CS1)CN1CCC2CC1` (single isomer, unassigned; (-)) [(-)-cis-isomer, (-)-cis-2-methylspiro(1,3-oxathiolan-5,3')quinuclidine], for which, in data set [1], the type of activity entry is reported as “agonist”. Moreover, the LD₅₀ with mice (female mice) amounted to 40 mg/kg; in the data set with mice (male mice), 35 mg/kg. In addition, the “times more potent in ³H-QNB displacement than its racemate” value with muscarinic receptors [3] (relative to (±)-cis-isomer) was 2.2. The same compound came in with an inhibitory constant (Ki) on M₁ receptors (Ki(^3H-PZ)) of 1.1 µM. For the same compound, the “Retention latency after 72 hours” value in data set [2] (AF64A-treated rats) is 563.5 (±23.6) seconds; in data set [2] (saline-treated rats), 474 (±61.3) seconds. The “net latencies of AF64A-treated groups compared with the group treated with double distilled water” value in data set [2] (AF64A-treated rats) is recorded as “significantly longer”.

For the compound `CC(=O)OCC[N+](C)(C)C` [Acetylcholine], it took 0.05 µM to reach a half-maximal effect in data set [1] (Cavia porcellus, induced contraction of isolated guinea pig ileum) (EC50).

In the case of `C[N+](C)(C)CC#CCOC(=O)Nc1cccc(Cl)c1` [McN-A-343], the Ki is 0.4 ± 0.1 µM at muscarinic receptors [4] (mean ± spread (n), Ki = IC50 ÷ (1 + C/KD)); 14.2 ± 1.41 µM on muscarinic receptors [3]; 4.9 µM on M₁ receptors (Ki(^3H-PZ)). Besides, at M₁ receptors, the “a:b” value is 0.35. For the same compound, on M₁ receptors (setting [5]), the “a:c” value is on record as 12.25.

In the case of `O=C1CCCN1CC#CCN1CCCC1` [Oxotremorine], the inhibitory constant (Ki) at muscarinic receptors [4] (footnote *: expressed in M x 10^-10) is 0.00096 ± 0.00042 µM; at muscarinic receptors [3], 1.7 ± 0.3 µM; at M₁ receptors (Ki(^3H-PZ)), 0.6 µM. Also, at M₁ receptors (setting [5]), the “a:c” value is 625. Moreover, the “a:b” value at M₁ receptors (ratio Ki(3H-PZ):Ki(3H-QNB), index of M1 versus M2 selectivity) is on record as 0.35.
